Molecular target: Arf-GAP with SH3 domain, ANK repeat and PH domain-containing protein 1 (Homo sapiens, UniProt Q9ULH1)
Sequence (Q9ULH1 whole entry, the tested form may be a part): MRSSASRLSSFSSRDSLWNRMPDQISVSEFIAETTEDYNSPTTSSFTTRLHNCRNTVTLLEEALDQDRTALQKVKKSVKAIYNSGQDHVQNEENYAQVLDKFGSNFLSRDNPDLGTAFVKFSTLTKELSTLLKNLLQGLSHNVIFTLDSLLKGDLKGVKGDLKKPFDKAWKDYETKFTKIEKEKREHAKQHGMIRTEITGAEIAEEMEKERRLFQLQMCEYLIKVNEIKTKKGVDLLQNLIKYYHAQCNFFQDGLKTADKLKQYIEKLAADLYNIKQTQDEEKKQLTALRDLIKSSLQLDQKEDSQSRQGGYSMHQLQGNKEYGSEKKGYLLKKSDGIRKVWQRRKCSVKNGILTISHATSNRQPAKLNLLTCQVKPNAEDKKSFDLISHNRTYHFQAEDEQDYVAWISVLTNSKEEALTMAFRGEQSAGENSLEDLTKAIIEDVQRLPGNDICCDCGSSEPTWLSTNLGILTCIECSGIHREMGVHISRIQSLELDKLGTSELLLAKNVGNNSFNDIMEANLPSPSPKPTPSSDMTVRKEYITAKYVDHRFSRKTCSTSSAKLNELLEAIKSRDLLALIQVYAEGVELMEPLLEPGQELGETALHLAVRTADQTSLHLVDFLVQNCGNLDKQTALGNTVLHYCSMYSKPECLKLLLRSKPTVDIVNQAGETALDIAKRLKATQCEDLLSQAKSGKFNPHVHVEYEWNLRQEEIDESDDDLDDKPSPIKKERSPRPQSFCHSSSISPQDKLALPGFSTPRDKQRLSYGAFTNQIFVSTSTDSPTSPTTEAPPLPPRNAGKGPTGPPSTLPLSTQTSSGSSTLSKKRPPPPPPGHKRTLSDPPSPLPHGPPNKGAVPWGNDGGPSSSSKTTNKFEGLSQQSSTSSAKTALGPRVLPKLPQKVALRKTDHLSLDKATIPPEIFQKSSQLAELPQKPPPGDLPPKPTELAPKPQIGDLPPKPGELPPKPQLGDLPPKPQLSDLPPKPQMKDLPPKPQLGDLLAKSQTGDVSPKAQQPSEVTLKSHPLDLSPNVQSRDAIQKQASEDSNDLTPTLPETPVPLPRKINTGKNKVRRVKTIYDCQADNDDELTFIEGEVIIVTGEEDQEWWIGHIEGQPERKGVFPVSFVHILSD

IC50: > 165 µM
SMILES: O=C(Nc1cccc(-c2csc(Nc3ccc(Cl)cc3)n2)c1)c1ccccc1
